Experimental data: patent publication US20230303540A1 (Merck Sharp & Dohme LLC, priority 2020, published 2023)

Target: GST-tagged truncated human mutant G2019S LRRK2 (Homo sapiens, UniProt Q5S007, G2019S)
Test: LRRK2 G2019S Km ATP LanthaScreen assay
Assay type: biochemical
Conditions: 134 μM ATP (Km ATP), LRRKtide substrate, mean IC50 values; read-out: LRRK2 pIC50 (converted)
Procedure, shortened: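 Compound preincubated 15 min at room temperature with enzyme in pH 8.5 Tris buffer (10 mM MgCl2). Then a 90 min reaction at ambient temperature with 134 μM (Km) ATP and fluorescein-LRRKtide. EDTA stop, Tb anti-phospho antibody TR-FRET; […]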

**Q.** Which IC50 does the source give for Cc1c(Nc2ncc3cc(Cl)c(N4CCN(C5COCC5O)CC4)nc3n2)cnn1C1CC1 (single isomer, unassigned) [Ex-16.3, (3S,4S) or (3R,4R)-4-(4-{6-chloro-2-[(1-cyclopropyl-5-methyl-1H-pyrazol-4-yl)amino]pyrido[2,3-d]pyrimidin-7-yl}piperazin-1-yl)oxolan-3-ol] here?
**A.** The IC50 was 4.55 nM.

**Q.** Which IC50 does the source give for Cc1c(Nc2ncc3cc(Cl)c(N4CCN(C5COCC5O)CC4)nc3n2)cnn1C1CC1 (single isomer, unassigned) [Ex-16.4, (3S,4S) or (3R,4R)-4-(4-{6-chloro-2-[(1-cyclopropyl-5-methyl-1H-pyrazol-4-yl)amino]pyrido[2,3-d]pyrimidin-7-yl}piperazin-1-yl)oxolan-3-ol] here?
**A.** Its IC50 is 83.8 nM.

**Q.** How did the IC50 turn out when C[C@H]1COC(=O)N1c1ccc2cnc(Nc3cnn(C4CCN(C5COC5)CC4F)c3Cl)nc2c1 (stereo in doubt) [Ex-7.3, (4S)-3-[2-({5-chloro-1-[(3S,4S)-3-fluoro-1-(oxetan-3-yl)piperidin-4-yl]-1H-pyrazol-4-yl}amino)quinazolin-7-yl]-4-methyl-1,3-oxazolidin-2-one] was run?
**A.** The IC50 was 0.976 nM.

**Q.** How did the IC50 turn out when Cc1c(Nc2ncc3cc(Cl)c(N4CCN(C)C(C)(C)C4)cc3n2)cnn1CC(F)F [Ex-1.3] was run?
**A.** Its IC50 is 180 nM.

**Q.** How did the IC50 turn out when F[C@H]1CN(C2COC2)CC[C@@H]1n1ncc(Nc2ncc3cc(Cl)c(N4CCC5(CC4)COC5)cc3n2)c1Cl [Ex-1.4, 6-chloro-N-{5-chloro-1-[(3S,4S)-3-fluoro-1-(oxetan-3-yl)piperidin-4-yl]-1H-pyrazol-4-yl}-7-(2-oxa-7-azaspiro[3.5]nonan-7-yl)quinazolin-2-amine] was run?
**A.** The IC50 was 1.54 nM.

**Q.** How did the IC50 turn out when Cc1c(Nc2ncc3ccc(N4[C@H](C)CC[C@H]4C)cc3n2)cnn1CCF [Ex-1.12, (2R,5S or 2,5R)-7-[2,5-dimethylpyrrolidin-1-yl]-N-[1-(2-fluoroethyl)-5-methyl-1H-pyrazol-4-yl]quinazolin-2-amine] was run?
**A.** Its IC50 is 20.2 nM.

**Q.** For CN1CCC2(CCN(c3cc4nc(Nc5cnn(CC(C)(C)O)c5Cl)ncc4cc3Cl)C2)C1 (stereo not drawn) [Ex-1.13, 1-(5-chloro-4-{[6-chloro-7-(7-methyl-2,7-diazaspiro[4.4]nonan-2-yl)quinazolin-2-yl]amino}-1H-pyrazol-1-yl)-2-methylpropan-2-ol], which IC50 is on record?
**A.** Its IC50 is 21 nM.

**Q.** For CC1(O)CCN(c2cc3nc(Nc4cnn(CC(F)F)c4Cl)ncc3cc2Cl)C1 (stereo not drawn) [Ex-1.14, 1-(6-chloro-2-{[5-chloro-1-(2,2-difluoroethyl)-1H-pyrazol-4-yl]amino}quinazolin-7-yl)-3-methylpyrrolidin-3-ol], which IC50 is on record?
**A.** The IC50 was 4.71 nM.

**Q.** Which IC50 does the source give for OCC1CCN(c2cc3nc(Nc4cnn(CC(F)F)c4Cl)ncc3cc2Cl)C1 (stereo not drawn) [Ex-1.15, [1-(6-chloro-2-{[5-chloro-1-(2,2-difluoroethyl)-1H-pyrazol-4-yl]amino}quinazolin-7-yl)pyrrolidin-3-yl]methanol] here?
**A.** Its IC50 is 5.49 nM.

**Q.** Which IC50 does the source give for FC(F)Cn1ncc(Nc2ncc3cc(Cl)c(N4CCC(N5CCCC5)CC4)cc3n2)c1Cl [Ex-1.16, 6-chloro-N-[5-chloro-1-(2,2-difluoroethyl)-1H-pyrazol-4-yl]-7-[4-(pyrrolidin-1-yl)piperidin-1-yl]quinazolin-2-amine] here?
**A.** Its IC50 is 16 nM.

**Q.** For O[C@H]1CCN(c2cc3nc(Nc4cnn(CC(F)F)c4Cl)ncc3cc2Cl)C1 [Ex-1.17, (3S)-1-(6-chloro-2-{[5-chloro-1-(2,2-difluoroethyl)-1H-pyrazol-4-yl]amino}quinazolin-7-yl)pyrrolidin-3-ol], which IC50 is on record?
**A.** The IC50 was 9.26 nM.

**Q.** How did the IC50 turn out when OC1CN(c2cc3nc(Nc4cnn(CC(F)F)c4Cl)ncc3cc2Cl)C1 [Ex-1.18, 1-(6-chloro-2-{[5-chloro-1-(2,2-difluoroethyl)-1H-pyrazol-4-yl]amino}quinazolin-7-yl)azetidin-3-ol] was run?
**A.** The IC50 was 18.9 nM.

**Q.** With OC[C@@H]1[C@H]2CN(c3cc4nc(Nc5cnn(CC(F)F)c5Cl)ncc4cc3Cl)C[C@@H]12 [Ex-1.19, [(1R,5S,6R)-3-(6-chloro-2-{[5-chloro-1-(2,2-difluoroethyl)-1H-pyrazol-4-yl]amino}quinazolin-7-yl)-3-azabicyclo[3.1.0]hexan-6-yl]methanol] as the compound, how does the IC50 read?
**A.** Its IC50 is 4.87 nM.

**Q.** OC[C@H]1CCN(c2cc3nc(Nc4cnn(CC(F)F)c4Cl)ncc3cc2Cl)C1 [Ex-1.20, [(3S)-1-(6-chloro-2-{[5-chloro-1-(2,2-difluoroethyl)-1H-pyrazol-4-yl]amino}quinazolin-7-yl)pyrrolidin-3-yl]methanol] was tested. Which IC50 did it give?
**A.** The IC50 was 8.23 nM.

**Q.** With OC1CCN(c2cc3nc(Nc4cnn(CC(F)F)c4Cl)ncc3cc2Cl)CC1 [Ex-1.21, 1-(6-chloro-2-{[5-chloro-1-(2,2-difluoroethyl)-1H-pyrazol-4-yl]amino}quinazolin-7-yl)piperidin-4-ol] as the compound, how does the IC50 read?
**A.** The IC50 was 6.09 nM.

**Q.** For OC1CN(C2CCN(c3cc4nc(Nc5cnn(CC(F)F)c5Cl)ncc4cc3Cl)CC2)C1 [Ex-1.22, 1-[1-(6-chloro-2-{[5-chloro-1-(2,2-difluoroethyl)-1H-pyrazol-4-yl]amino}quinazolin-7-yl)piperidin-4-yl]azetidin-3-ol], which IC50 is on record?
**A.** The IC50 was 6.94 nM.

**Q.** CN(C)[C@@H]1CCN(c2cc3nc(Nc4cnn(CC(F)F)c4Cl)ncc3cc2Cl)C1 [Ex-1.23, 6-chloro-N-[5-chloro-1-(2,2-difluoroethyl)-1H-pyrazol-4-yl]-7-[(3R)-3-(dimethylamino)pyrrolidin-1-yl]quinazolin-2-amine] was tested. Which IC50 did it give?
**A.** The IC50 was 32.6 nM.

**Q.** For Clc1cc2cnc(Nc3cnn(C4CC4)c3Cl)nc2cc1N1CCN(C2COC2)CC1 [Ex-1.24, 6-chloro-N-(5-chloro-1-cyclopropyl-1H-pyrazol-4-yl)-7-[4-(oxetan-3-yl)piperazin-1-yl]quinazolin-2-amine], which IC50 is on record?
**A.** Its IC50 is 2.59 nM.

**Q.** Which IC50 does the source give for FC1(F)CN(C2CCN(c3cc4nc(Nc5cnn(C6CC6)c5Cl)ncc4cc3Cl)CC2)C1 [Ex-1.25, 6-chloro-N-(5-chloro-1-cyclopropyl-1H-pyrazol-4-yl)-7-[4-(3,3-difluoroazetidin-1-yl)piperidin-1-yl]quinazolin-2-amine] here?
**A.** Its IC50 is 4.33 nM.

**Q.** Which IC50 does the source give for Clc1cc2cnc(Nc3cnn(C4CC4)c3Cl)nc2cc1N1CCn2cnnc2C1 [Ex-1.26, 6-chloro-N-(5-chloro-1-cyclopropyl-1H-pyrazol-4-yl)-7-(5,6-dihydro[1,2,4]triazolo[4,3-a]pyrazin-7(8H)-yl)quinazolin-2-amine] here?
**A.** The IC50 was 1.49 nM.

**Q.** How did the IC50 turn out when FC1CN(C2CCN(c3cc4nc(Nc5cnn(C6CC6)c5Cl)ncc4cc3Cl)CC2)C1 [Ex-1.27, 6-chloro-N-(5-chloro-1-cyclopropyl-1H-pyrazol-4-yl)-7-[4-(3-fluoroazetidin-1-yl)piperidin-1-yl]quinazolin-2-amine] was run?
**A.** The IC50 was 0.778 nM.

**Q.** Clc1cc2cnc(Nc3cnn(C4CC4)c3Cl)nc2cc1N1CCC(N2CCC2)CC1 [Ex-1.28, 7-[4-(azetidin-1-yl)piperidin-1-yl]-6-chloro-N-(5-chloro-1-cyclopropyl-1H-pyrazol-4-yl)quinazolin-2-amine] was tested. Which IC50 did it give?
**A.** The IC50 was 3.31 nM.

**Q.** With N#CCCN1CCN(c2cc3nc(Nc4cnn(C5CC5)c4Cl)ncc3cc2Cl)CC1 [Ex-1.29, 3-(4-{6-chloro-2-[(5-chloro-1-cyclopropyl-1H-pyrazol-4-yl)amino]quinazolin-7-yl}piperazin-1-yl)propanenitrile] as the compound, how does the IC50 read?
**A.** The IC50 was 2.78 nM.

**Q.** For CC(=O)N1CCN(c2cc3nc(Nc4cnn(C5CC5)c4Cl)ncc3cc2Cl)CC1 [Ex-1.30, 1-(4-{6-chloro-2-[(5-chloro-1-cyclopropyl-1H-pyrazol-4-yl)amino]quinazolin-7-yl}piperazin-1-yl)ethan-1-one], which IC50 is on record?
**A.** The IC50 was 7.16 nM.

**Q.** With CC(C)(O)CN1CCN(c2cc3nc(Nc4cnn(C5CC5)c4Cl)ncc3cc2Cl)CC1 [Ex-1.31, 1-(4-{6-chloro-2-[(5-chloro-1-cyclopropyl-1H-pyrazol-4-yl)amino]quinazolin-7-yl}piperazin-1-yl)-2-methylpropan-2-ol] as the compound, how does the IC50 read?
**A.** Its IC50 is 10.1 nM.

**Q.** For CC1CN(c2cc3nc(Nc4cnn(C5CC5)c4Cl)ncc3cc2Cl)CCN1CC(C)(C)O (stereo not drawn) [Ex-1.32, 1-(4-{6-chloro-2-[(5-chloro-1-cyclopropyl-1H-pyrazol-4-yl)amino]quinazolin-7-yl}-2-methylpiperazin-1-yl)-2-methylpropan-2-ol], which IC50 is on record?
**A.** The IC50 was 5.49 nM.

**Q.** With Clc1cc2cnc(Nc3cnn(C4CC4)c3Cl)nc2cc1N1C[C@@H]2C[C@H]1CN2C1COC1 [Ex-1.33, 6-chloro-N-(5-chloro-1-cyclopropyl-1H-pyrazol-4-yl)-7-[(1S,4S)-5-(oxetan-3-yl)-2,5-diazabicyclo[2.2.1]heptan-2-yl]quinazolin-2-amine] as the compound, how does the IC50 read?
**A.** The IC50 was 26.1 nM.

**Q.** CC1(O)CCN(c2cc3nc(Nc4cnn(C5CC5)c4Cl)ncc3cc2Cl)CC1 [Ex-1.34, 1-{6-chloro-2-[(5-chloro-1-cyclopropyl-1H-pyrazol-4-yl)amino]quinazolin-7-yl}-4-methylpiperidin-4-ol] was tested. Which IC50 did it give?
**A.** The IC50 was 1.39 nM.

**Q.** With OC1C2CC1CN(c1cc3nc(Nc4cnn(C5CC5)c4Cl)ncc3cc1Cl)C2 (stereo not drawn) [Ex-1.35, 3-{6-chloro-2-[(5-chloro-1-cyclopropyl-1H-pyrazol-4-yl)amino]quinazolin-7-yl}-3-azabicyclo[3.1.1]heptan-6-ol] as the compound, how does the IC50 read?
**A.** Its IC50 is 3.48 nM.

**Q.** With C[C@]1(O)[C@@H]2CC[C@H]1CN(c1cc3nc(Nc4cnn(C5CC5)c4)ncc3cc1Cl)C2 [Ex-1.36, (8-syn)-3-{6-chloro-2-[(1-cyclopropyl-1H-pyrazol-4-yl)amino]quinazolin-7-yl}-8-methyl-3-azabicyclo[3.2.1]octan-8-ol] as the compound, how does the IC50 read?
**A.** The IC50 was 6.72 nM.

**Q.** How did the IC50 turn out when OC1CN(C2CCN(c3cc4nc(Nc5cnn(C6CC6)c5Cl)ncc4cc3Cl)CC2)C1 [Ex-1.37, 1-(1-{6-chloro-2-[(5-chloro-1-cyclopropyl-1H-pyrazol-4-yl)amino]quinazolin-7-yl}piperidin-4-yl)azetidin-3-ol] was run?
**A.** Its IC50 is 1.71 nM.

**Q.** With CC1(O)CCN(c2cc3nc(Nc4cnn(C5CC5)c4Cl)ncc3cc2Cl)C1 (stereo not drawn) [Ex-1.38, 1-{6-chloro-2-[(5-chloro-1-cyclopropyl-1H-pyrazol-4-yl)amino]quinazolin-7-yl}-3-methylpyrrolidin-3-ol] as the compound, how does the IC50 read?
**A.** Its IC50 is 9.77 nM.

**Q.** Which IC50 does the source give for C[C@]1(O)[C@@H]2CC[C@H]1CN(c1cc3nc(Nc4cnn(C5CC5)c4Cl)ncc3cc1Cl)C2 [Ex-1.40, (8-syn)-3-{6-chloro-2-[(5-chloro-1-cyclopropyl-1H-pyrazol-4-yl)amino]quinazolin-7-yl}-8-methyl-3-azabicyclo[3.2.1]octan-8-ol] here?
**A.** Its IC50 is 11.2 nM.
